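Test compounds were applied to cells in 96-well plates for 48 hours at 5 doses. TGI denotes the concentration required for complete inhibition of growth.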
Key:
Assay in all cases: NCI tumour cell line growth inhibition, 48 h
OVCAR-3 ovarian = test system: OVCAR-3 ovarian
TK-10 renal = test system: TK-10 renal
PC-3 prostate = test system: PC-3 prostate
A498 renal = test system: A498 renal
SW-620 colon = test system: SW-620 colon
EKVX NSCLC = test system: EKVX NSCLC
IGROV1 ovarian = test system: IGROV1 ovarian
HCC-2998 colon = test system: HCC-2998 colon
HL-60(TB) leukemia = test system: HL-60(TB) leukemia
786-0 renal = test system: 786-0 renal
CCRF-CEM leukemia = test system: CCRF-CEM leukemia
KM12 colon = test system: KM12 colon
SK-MEL-5 melanoma = test system: SK-MEL-5 melanoma
RPMI-8226 leukemia = test system: RPMI-8226 leukemia
SF-539 CNS = test system: SF-539 CNS
M14 melanoma = test system: M14 melanoma
SN12C renal = test system: SN12C renal
SNB-75 CNS = test system: SNB-75 CNS
ACHN renal = test system: ACHN renal
UO-31 renal = test system: UO-31 renal
HS 578T breast = test system: HS 578T breast
OVCAR-8 ovarian = test system: OVCAR-8 ovarian
SF-268 CNS = test system: SF-268 CNS
HCT-15 colon = test system: HCT-15 colon
NCI-H23 lung = test system: NCI-H23 lung
COLO 205 colon = test system: COLO 205 colon
SF-295 CNS = test system: SF-295 CNS
T-47D breast = test system: T-47D breast
DU-145 prostate = test system: DU-145 prostate
NCI/ADR-RES ovarian = test system: NCI/ADR-RES ovarian
HT29 colon = test system: HT29 colon
MDA-N = test system: MDA-N
K-562 leukemia = test system: K-562 leukemia
MDA-MB-231 breast = test system: MDA-MB-231 breast
U251 CNS = test system: U251 CNS
UACC-62 melanoma = test system: UACC-62 melanoma
MALME-3M melanoma = test system: MALME-3M melanoma
NCI-H460 lung = test system: NCI-H460 lung
NCI-H522 lung = test system: NCI-H522 lung
MOLT-4 leukemia = test system: MOLT-4 leukemia
OVCAR-5 ovarian = test system: OVCAR-5 ovarian
OVCAR-4 ovarian = test system: OVCAR-4 ovarian
SK-OV-3 ovarian = test system: SK-OV-3 ovarian
A549 NSCLC = test system: A549 NSCLC
MCF7 breast = test system: MCF7 breast
NCI-H226 lung = test system: NCI-H226 lung
MDA-MB-435 = test system: MDA-MB-435
UACC-257 melanoma = test system: UACC-257 melanoma
SK-MEL-28 melanoma = test system: SK-MEL-28 melanoma
HCT-116 colon = test system: HCT-116 colon
CAKI-1 renal = test system: CAKI-1 renal
SK-MEL-2 melanoma = test system: SK-MEL-2 melanoma
HOP-92 NSCLC = test system: HOP-92 NSCLC
LOX IMVI melanoma = test system: LOX IMVI melanoma
BT-549 breast = test system: BT-549 breast
SNB-19 CNS = test system: SNB-19 CNS

Question: Which TGI (OVCAR-3 ovarian) does the source give for `C=C1C(NC)CCC23CC24CCC2(C)C(C(C)=O)C(O)CC2(C)C4CCC13` (stereo unspecified) here?
Answer: The TGI was greater than 100 µM.

Question: What about the TGI (TK-10 renal) of the same molecule?
Answer: Its TGI is greater than 100 µM.

Question: And the TGI (PC-3 prostate)?
Answer: The TGI was greater than 100 µM.

Question: And the TGI (A498 renal)?
Answer: The TGI was greater than 100 µM.

Question: What about the TGI (SW-620 colon) of the same molecule?
Answer: The TGI was greater than 100 µM.

Question: And the TGI (EKVX NSCLC)?
Answer: Its TGI is greater than 100 µM.

Question: What about the TGI (IGROV1 ovarian) of the same molecule?
Answer: The TGI was greater than 100 µM.

Question: What about the TGI (HCC-2998 colon) of the same molecule?
Answer: The TGI was greater than 100 µM.

Question: What about the TGI (HL-60(TB) leukemia) of the same molecule?
Answer: Its TGI is greater than 100 µM.

Question: And the TGI (786-0 renal)?
Answer: The TGI was greater than 100 µM.

Question: And the TGI (CCRF-CEM leukemia)?
Answer: Its TGI is greater than 100 µM.

Question: And the TGI (KM12 colon)?
Answer: Its TGI is greater than 100 µM.

Question: What about the TGI (SK-MEL-5 melanoma) of the same molecule?
Answer: The TGI was greater than 100 µM.

Question: And the TGI (RPMI-8226 leukemia)?
Answer: Its TGI is greater than 100 µM.

Question: What about the TGI (SF-539 CNS) of the same molecule?
Answer: Its TGI is greater than 100 µM.

Question: What about the TGI (M14 melanoma) of the same molecule?
Answer: Its TGI is greater than 100 µM.

Question: What about the TGI (SN12C renal) of the same molecule?
Answer: The TGI was greater than 100 µM.

Question: What about the TGI (SNB-75 CNS) of the same molecule?
Answer: The TGI was greater than 100 µM.

Question: And the TGI (ACHN renal)?
Answer: Its TGI is greater than 100 µM.

Question: And the TGI (UO-31 renal)?
Answer: The TGI was greater than 100 µM.

Question: What about the TGI (HS 578T breast) of the same molecule?
Answer: Its TGI is greater than 100 µM.

Question: What about the TGI (OVCAR-8 ovarian) of the same molecule?
Answer: The TGI was greater than 100 µM.

Question: What about the TGI (SF-268 CNS) of the same molecule?
Answer: Its TGI is greater than 100 µM.

Question: What about the TGI (HCT-15 colon) of the same molecule?
Answer: Its TGI is greater than 100 µM.

Question: What about the TGI (NCI-H23 lung) of the same molecule?
Answer: The TGI was greater than 100 µM.

Question: And the TGI (COLO 205 colon)?
Answer: Its TGI is greater than 100 µM.

Question: What about the TGI (SF-295 CNS) of the same molecule?
Answer: Its TGI is 82.5 µM.

Question: What about the TGI (T-47D breast) of the same molecule?
Answer: The TGI was greater than 100 µM.

Question: What about the TGI (DU-145 prostate) of the same molecule?
Answer: Its TGI is greater than 100 µM.

Question: And the TGI (NCI/ADR-RES ovarian)?
Answer: Its TGI is greater than 100 µM.

Question: And the TGI (HT29 colon)?
Answer: Its TGI is greater than 100 µM.

Question: And the TGI (MDA-N)?
Answer: Its TGI is greater than 100 µM.

Question: What about the TGI (K-562 leukemia) of the same molecule?
Answer: The TGI was greater than 100 µM.

Question: What about the TGI (MDA-MB-231 breast) of the same molecule?
Answer: The TGI was greater than 100 µM.

Question: And the TGI (U251 CNS)?
Answer: Its TGI is greater than 100 µM.

Question: What about the TGI (UACC-62 melanoma) of the same molecule?
Answer: Its TGI is greater than 100 µM.

Question: And the TGI (MALME-3M melanoma)?
Answer: The TGI was greater than 100 µM.

Question: What about the TGI (NCI-H460 lung) of the same molecule?
Answer: Its TGI is greater than 100 µM.

Question: And the TGI (NCI-H522 lung)?
Answer: Its TGI is greater than 100 µM.

Question: And the TGI (MOLT-4 leukemia)?
Answer: The TGI was greater than 100 µM.

Question: And the TGI (OVCAR-5 ovarian)?
Answer: The TGI was greater than 100 µM.

Question: What about the TGI (OVCAR-4 ovarian) of the same molecule?
Answer: Its TGI is greater than 100 µM.

Question: And the TGI (SK-OV-3 ovarian)?
Answer: Its TGI is greater than 100 µM.

Question: What about the TGI (A549 NSCLC) of the same molecule?
Answer: The TGI was greater than 100 µM.

Question: And the TGI (MCF7 breast)?
Answer: Its TGI is greater than 100 µM.

Question: What about the TGI (NCI-H226 lung) of the same molecule?
Answer: Its TGI is greater than 100 µM.

Question: And the TGI (MDA-MB-435)?
Answer: Its TGI is greater than 100 µM.

Question: And the TGI (UACC-257 melanoma)?
Answer: The TGI was greater than 100 µM.

Question: What about the TGI (SK-MEL-28 melanoma) of the same molecule?
Answer: The TGI was greater than 100 µM.

Question: And the TGI (HCT-116 colon)?
Answer: Its TGI is greater than 100 µM.

Question: What about the TGI (CAKI-1 renal) of the same molecule?
Answer: The TGI was greater than 100 µM.

Question: What about the TGI (SK-MEL-2 melanoma) of the same molecule?
Answer: The TGI was greater than 100 µM.

Question: And the TGI (HOP-92 NSCLC)?
Answer: Its TGI is greater than 100 µM.

Question: What about the TGI (LOX IMVI melanoma) of the same molecule?
Answer: Its TGI is greater than 100 µM.

Question: What about the TGI (BT-549 breast) of the same molecule?
Answer: The TGI was greater than 100 µM.

Question: What about the TGI (SNB-19 CNS) of the same molecule?
Answer: Its TGI is greater than 100 µM.
